Measured values taken from US20060035946A1, “Amyloid-binding, metal-chelating agents” (The General Hospital Corporation, priority 2003, published 2006).
One block for each compound: values may come before it.

Experiments:
Aβ1-40 [1] = target: T1, Aβ1-40 (Homo sapiens, UniProt P05067); test: Inhibition of Zn2+-induced aggregation of Aβ measured by turbidity; format: biochemical; details: Aβ1-40 10 μM, Zn2+ 25 μM, compound 25 μM, pH 7.4; FIG. 8
T1 construct: Human Aβ peptides (Aβ1-40 and Aβ1-42) were synthesized; purchased W. M. Keck Foundation Biotechnology Resource Laboratory (Yale); Glabe Laboratory (UC Irvine); Multhaup Laboratory (Heidelberg); U.S. Peptide, Inc; Aldrich-Sigma; host or cells: chemical synthesis (solid-phase Fmoc)
Description: (§1) Human Aβ peptides (Aβ1-40 and Aβ1-42) were synthesized using solid-phase Fmoc chemistry at the W. M. Keck Foundation Biotechnology Resource Laboratory (Yale University, New Haven, Conn.); Glabe Laboratory (University of California, Irvine, Calif.); or Multhaup Laboratory (University of Heidelberg, Germany); or purchased from U.S. Peptide, Inc. (Rancho Cucamonga, Calif.); or Aldrich-Sigma (St. Louis, Mo.). The syntheses were confirmed by purification by reverse-phase HPLC, amino acid sequencing, and mass spectrometry. Synthetic Aβ peptides were dissolved in trifluoroethanol (30% in Milli-Q water (Millipore Corporation, Milford, Mass.)) or 20 mM HEPES (pH 8.5) at a concentration of […], centrifuged for 20 minutes at 10,000×g and the supernatant (stock Aβ) used for subsequent assays on the day of the experiment.
Turbidity measurements were performed as previously described (X. Huang et al., J. Biol. Chem. 1997, 272: 26464-26470). […] Subsequently, 20 μL aliquots of 10 mM of the bifunctional molecule to be tested or 10 mM Zn^2+ were added to the mixture alternatively, and following a 2 min. delay, a further four readings were taken at 1 min. intervals. After the final addition of the bifunctional molecule and turbidity reading, the mixtures were incubated for an additional 30 minutes before taking the last readings. […]

[2] = test system: cortical amyloid accumulation; details: Tg2576 transgenic mouse model for Alzheimer's disease; R. A. Cherny et al., Neuron 2001; cited from earlier work
HSA = HSA (Homo sapiens, UniProt P02768); test: MRI signals from spherical phantoms in the presence of HSA; format: binding; details: PBS pH 7.4, FIG. 11
Description: (§2) Different solution mixtures (containing a contrast imaging agent, Gd-XH1 or Gd-DTPA, in the presence or absence of Aβ1-40, Aβ1-42 or HSA in PBS, pH 7.4) were injected into 4.5-mL hollow spheres (made of polypropylene) and subjected to a 3-T magnetic scanner (Simens). Spin-Echo scanning mode was used and T1 signals were measured for each solution using 12 TR values (TE=5 ms), with R1=1/T1, and R1(obs)=R1(O)+R1 (Gd-XH1-Aβ1-40 or -Aβ1-42).

Aβ1-40 [3] = target: T1, Aβ1-40; test: MRI signals from spherical phantoms in the presence of Aβ1-40; format: binding; details: PBS pH 7.4, FIG. 11
Description: as §1, §2

[4] = test system: E17 rat cortical primary neurons; test: Neurotoxicity in primary neuronal culture (LDH release and MTT assays); format: cell-based; details: XH1 0, 1 or 10 μM, 48 hours after treatment; FIG. 9A
Description: A primary neuronal culture was used to test the neurotoxicity of the parent bifunctional molecule, XH1. E17 rat cortical primary neurons were obtained from pathogen-free female Sprague-Dawley rats (purchased from Taconic Farms, Mass.) after 17 days of gestation, as described by G. J. Brewer and C. W. Cotman (in Brain Res. 1989, 494: 65-74). The protocol used allowed long-term culture of neurons at low density under precisely defined culture conditions. This protocol provided up to 90% neuronal culture. It was desirable that a small population of glial cells be co-cultured with the rat cortical primary neurons as these cells support neuronal survival. Cytosine arabinoside (1 μM) was used to control the growth of glial cells in the culture preparation. The neuronal population was checked regularly using neuron-specific enolase (and/or astroglia-specific S100β) immunohistochemistry.
E17 rat cortical primary neurons were grown under 95% […], 5% CO2, 85% humidity conditions, at 37° C. for 4 days in serum-free Neurobasal™ medium with B-27 supplement (Life Technologies, Inc.), 20 μM L-glutamate, 100 units/mL penicillin, […] streptomycin, and 2 mM L-glutamine. On the 5th day (treatment day), the medium was replaced with serum-free Neurobasal™ medium plus L-glutamine without B-27 supplement. […]

APP = test: Determination of APP protein synthesis by SDS-PAGE in SH-SY5Y cells; format: cell-based, human; details: increasing XH1 concentration, 48 hours, FIG. 10A
Description: (§3) In SH-SY5Y human neuroblastoma cells, the capacity of XH1 to suppress APP synthesis was measured by SDS-PAGE. Control proteins (β-tubulin and/or two amyloid-precursor-like proteins, APLP1 and APLP2) were used to ensure target suppression specificity of the inventive bifunctional molecule.
(§4) SDS-PAGE. SH-SY5Y human neutoblastoma cells were harvested and washed with cold PBS three times and then lysed with M-PER™ mammalian protein extraction reagent (Pierce) mixed with protease inhibitor cocktails (Roche). The cell lysate was […] for 15 minutes at 13,000 rpm in a cold room, and the supernatants were BCA assayed for total protein concentrations. Protein blotting was performed on pre-casted NuPAGE™ 4-12% Bis-Tris Gel (Invitrogen) with equal protein loading (15 μg/well). It was run at 200 V for 45 minutes and transferred at 75 mA/gel for 95 minutes. The blots were probed by primary and secondary antibodies according to manufacturer's instructions and finally washed for 2-3 hours at 15 min. intervals. The blots were then developed using a chemiluminescent kit (Pierce).

APLP1 = test: Control protein synthesis by SDS-PAGE in SH-SY5Y cells; format: cell-based, human; details: XH1 up to 10 μM, FIG. 10B
Description: as §3, §4

APLP2 = test: as above; format: cell-based, human; details: XH1 up to 10 μM, FIG. 10B
Description: as §3, §4

[5] = test system: human SH-SY5Y neuroblastoma cells; test: Neurotoxicity in neuroblastoma cells (LDH release assay); format: cell-based; details: XH1 0, 1, 5 or 10 μM, 48 hours after treatment; FIG. 9B
Description: The neurotoxicity of XH1 was also tested on human SH-SY5Y neuroblastoma cells. The SH-SY5Y cell line is commonly used to study neuritogenesis, differentiation, and tumorigenesis (D. Vu et al., Brain Res. Mol. Brain Res. 2003, 115: 93-103). SH-SY5Y cells were obtained from American Type Culture Collection and grown in Dulbecco's modified Eagle's medium supplemented with 10% fetal bovine serum (Gibco-BRL) and antibiotics.
Human SH-SY5Y neuroblastoma cells were incubated in the presence of XH1 (0, 1, 5 or 10 μM) (95% […], 5% CO2, 85% humidity, 37° C.) and cell viability was assessed 48 hours after treatment using the LDH release assay as described above.

β-tubulin = test: Control protein expression by SDS-PAGE in SH-SY5Y cells; format: cell-based, human; details: same conditions as APP, FIG. 10A
Description: as §3, §4

T1 sequence (P05067 672-711 limits assumed): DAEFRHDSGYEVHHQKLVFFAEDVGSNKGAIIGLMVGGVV
Sequence of HSA (P02768 25-609): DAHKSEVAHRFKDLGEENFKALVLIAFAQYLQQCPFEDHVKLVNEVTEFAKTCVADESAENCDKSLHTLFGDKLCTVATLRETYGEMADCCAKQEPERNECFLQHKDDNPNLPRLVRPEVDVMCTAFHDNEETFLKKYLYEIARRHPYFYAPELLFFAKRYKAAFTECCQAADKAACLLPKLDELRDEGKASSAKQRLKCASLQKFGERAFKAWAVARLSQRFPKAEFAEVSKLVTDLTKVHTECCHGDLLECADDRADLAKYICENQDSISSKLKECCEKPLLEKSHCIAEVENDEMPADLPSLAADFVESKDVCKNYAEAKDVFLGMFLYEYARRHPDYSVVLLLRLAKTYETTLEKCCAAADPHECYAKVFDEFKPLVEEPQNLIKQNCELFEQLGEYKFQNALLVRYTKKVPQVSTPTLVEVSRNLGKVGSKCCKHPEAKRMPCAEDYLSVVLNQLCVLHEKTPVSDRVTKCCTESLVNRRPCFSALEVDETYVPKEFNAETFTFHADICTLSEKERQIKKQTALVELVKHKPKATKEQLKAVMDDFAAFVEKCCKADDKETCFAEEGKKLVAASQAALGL

- Zn2+-induced aggregation of Aβ1-40 in solution (turbidity at 400 nm) (Aβ1-40 [1]): significantly decrease
Compound: O=C(O)CN(CCN(CC(=O)O)CC(=O)O)CCN(CC(=O)O)CC(=O)O [DTPA, diethylene triaminepentaacetic acid, reference compound]

Compound: Oc1c(I)cc(Cl)c2cccnc12 [Clioquinol]
- cortical amyloid accumulation [2]: marked inhibition

- effect on MRI signal of combination with HSA (HSA): No effects
- effect on MRI signal of combination with Aβ (Aβ1-40 [3]): No effects
Compound: O=C([O-])CN(CCN(CC(=O)[O-])CC(=O)O)CCN(CC(=O)[O-])CC(=O)O.[Gd+3] [Gd-DTPA]

Compound: O=C(O)CN(CCN(CC(=O)O)CC(=O)Nc1ccc(-c2nc3ccccc3s2)cc1)CCN(CC(=O)O)CC(=O)Nc1ccc(-c2nc3ccccc3s2)cc1 [XH1]
- cell death (LDH release and MTT assays) [4]: does not induce any significant cell death
- APP synthesis (APP): decrease in APP synthesis
- Zn2+-induced aggregation of Aβ1-40 in solution (turbidity at 400 nm) (Aβ1-40 [1]): significantly decrease
- APLP1 synthesis (APLP1): did not affect
- APLP2 synthesis (APLP2): did not affect
- cell death (LDH release assay) [5]: does not cause any significant cell death
- β-tubulin expression (β-tubulin): no effects
